Reference: paper PMC10331583, “Control of fibrosis with enhanced safety via asymmetric inhibition of prolyl‐tRNA synthetase 1” (EMBO Molecular Medicine, 2023)
“And” between values parts separate entries of the source, which are not always exact repeats. Equal entries are not always repeated. Where two headings read alike, the source gives them in different places.

What was measured:
[1] = test system: TNT Quick Coupled Transcription/Translation System (luciferase synthesis); format: biochemical
WI‐26 VA4 cells [2] = assay: Puromycin incorporation assay; format: cell-based, human; details: for activity at 0.003 µM: WI26VA4, 3 nM; for activity at 0.01 µM: WI26VA4, 10 nM; for activity at 0.03 µM: WI26VA4, 30 nM; for activity at 0.1 µM: WI26VA4, 100 nM; for activity at 0.3 µM: WI26VA4, 300 nM; for activity at 0.5 µM: WI26VA4, 500 nM; for activity at 1 µM: WI26VA4, 1000 nM
Protocol: After being rinsed with cold PBS twice, the cells were collected and resuspended in 200 μl of the carbonate bicarbonate buffer (Sigma Aldrich, C3041‐50CAP) with protease inhibitor. The cell lysates were obtained by sonication and centrifugation at 20,000 g for 15 min at 4°C. After protein quantification using a Pierce™ BCA Protein Assay Kit (Thermo Fisher Scientific, 23225), 400 ng of the proteins was coated to ELISA plates for 18 h at 4°C. […] The plates were rinsed with the washing buffer for three times after each antibody incubation step. […] The amount of puromycin incorporated in proteins was determined by measuring the absorbance at 450 nm (reference wavelength at 620 nm). Experimental values marked in red with strikethrough text in the Figure Source Data file were excluded from the analysis. These values were determined by considering the values of biological and technical replicates under the same condition, as well as the values at the former and later chemical concentrations.

WI‐26 VA4 cells [3] = assay: Collagen ELISA (secreted pro‐collagen I)
[4] = log(inhibitor) vs. response, variable slope (four parameters), concentration in nM
[5] = Homo sapiens, read-out: Puromycin, % of control, average
[6] = Homo sapiens, read-out: Puromycin, % of control, single replicate
[7] = log(inhibitor) vs. response, variable slope (four parameters)

Q: `Cc1c(Br)cnc2c1ncn2CC(=O)C[C@H]1NCCC[C@@H]1O` [DWN11761] was tested. Which “TNT-luciferase % of control” value ([1]; 6000 nM, Experiment #1, replicates, 6 µM) did it give?
A: 0.05 % of control and 0.047 % of control and 0.06 % of control

Q: What about the “TNT-luciferase % of control” value ([1]; 6000 nM, Experiment #2, replicates, 6 µM) of the same compound?
A: 0.15 % of control and 0.14 % of control (2×)

Q: And the “TNT-luciferase % of control” value ([1]; 6000 nM, Experiment #3, replicates, 6 µM)?
A: 0.14 % of control (2×) and 0.12 % of control

Q: And the “TNT-luciferase % of control, average” value ([1]; 6000 nM)?
A: 0.11 % of control

Q: And the “TNT-luciferase % of control” value ([1]; 20000 nM, Experiment #1, replicates, 20 µM)?
A: -0.0091 % of control and -0.014 % of control and -0.00199 % of control

Q: What about the “TNT-luciferase % of control” value ([1]; 20000 nM, Experiment #2, replicates, 20 µM) of the same compound?
A: 0.00206 % of control and -0.00211 % of control and -0.00412 % of control

Q: What about the “TNT-luciferase % of control” value ([1]; 20000 nM, Experiment #3, replicates, 20 µM) of the same compound?
A: 0.02 % of control and -0.0067 % of control and 0.00433 % of control

Q: And the “TNT-luciferase % of control, average” value ([1]; 20000 nM)?
A: -0.00128 % of control

Q: And the “TNT-luciferase LogIC50 (best-fit value)” value [1, 4]?
A: 2.775

Q: What about the IC50 ([1]; log(inhibitor) vs. response, variable slope (four parameters), unit from head concentration (nM), read-out: TNT-luciferase IC50 (best-fit value)) of the same compound?
A: 595 nM

Q: And the “Puromycin, % of control, single replicate” value (“Puromycin, % of control” for short) (WI‐26 VA4 cells [2]; 3 nM, 0.003 µM)?
A: 104.76 % of control and 100.60 % of control and 105.06 % of control and 105.49 % of control and 105.21 % of control and 111.96 % of control and 104.24 % of control

Q: And the “Puromycin, % of control” value (WI‐26 VA4 cells [2]; 10 nM, 0.01 µM)?
A: 99.99 % of control and 99.81 % of control and 108.66 % of control and 104.16 % of control and 106.55 % of control and 105.60 % of control and 106.56 % of control

Q: And the “Puromycin, % of control” value (WI‐26 VA4 cells [2]; 30 nM, 0.03 µM)?
A: 101.89 % of control and 99.32 % of control and 110.82 % of control and 110.04 % of control and 108.90 % of control and 103.15 % of control and 106.42 % of control

Q: What about the “Puromycin, % of control” value (WI‐26 VA4 cells [2]; 100 nM, 0.1 µM) of the same compound?
A: 112.55 % of control and 117.55 % of control and 127.48 % of control and 125.28 % of control and 125.52 % of control and 127.16 % of control and 126.25 % of control

Q: And the “Puromycin, % of control” value (WI‐26 VA4 cells [2]; 300 nM, 0.3 µM)?
A: 109.98 % of control and 112.11 % of control and 119.25 % of control and 120.23 % of control and 124.85 % of control and 125.66 % of control and 106.56 % of control

Q: And the “Puromycin, % of control” value (WI‐26 VA4 cells [2]; 500 nM, 0.5 µM)?
A: 54.77 % of control and 53.35 % of control and 56.10 % of control and 56.57 % of control and 57.43 % of control and 59.14 % of control and 54.96 % of control

Q: And the “Puromycin, % of control” value (WI‐26 VA4 cells [2]; 1000 nM, 1 µM)?
A: 28.04 % of control and 30.25 % of control and 30.46 % of control and 30.97 % of control and 31.52 % of control and 29.73 % of control and 28.78 % of control

Q: And the “Puromycin, % of control” value (WI‐26 VA4 cells [2]; 3000 nM, 3 µM)?
A: 0.34 % of control and -0.19 % of control and -0.45 % of control and 0.86 % of control and 1.02 % of control and 0.90 % of control and 0.51 % of control and -0.71 % of control

Q: What about the “Puromycin, % of control” value (WI‐26 VA4 cells [2]; 10000 nM, 10 µM) of the same compound?
A: 0.48 % of control and -0.27 % of control and -0.54 % of control and 1.84 % of control and 0.67 % of control and 0.24 % of control and 0.33 % of control and 0.60 % of control

Q: What about the “Puromycin, % of control” value (WI‐26 VA4 cells [2]; 100000 nM, 100 µM) of the same compound?
A: 0.17 % of control and 0.43 % of control and -0.14 % of control and 0.04 % of control and 0.27 % of control and -0.04 % of control and 0.92 % of control and 0.65 % of control

Q: And the activity at 0.003 µM (WI‐26 VA4 cells [2]; [5])?
A: 105%

Q: And the activity at 0.003 µM (WI‐26 VA4 cells [2]; [6])?
A: 104%

Q: And the activity at 0.01 µM (WI‐26 VA4 cells [2]; [5])?
A: 104%

Q: What about the activity at 0.01 µM (WI‐26 VA4 cells [2]; [6]) of the same compound?
A: 101%

Q: And the activity at 0.03 µM (WI‐26 VA4 cells [2]; [5])?
A: 105%

Q: What about the activity at 0.03 µM (WI‐26 VA4 cells [2]; [6]) of the same compound?
A: 103%

Q: And the activity at 0.1 µM (WI‐26 VA4 cells [2]; [5])?
A: 122%

Q: What about the activity at 0.1 µM (WI‐26 VA4 cells [2]; [6]) of the same compound?
A: 114%

Q: What about the activity at 0.3 µM (WI‐26 VA4 cells [2]; [5]) of the same compound?
A: 117%

Q: What about the activity at 0.3 µM (WI‐26 VA4 cells [2]; [6]) of the same compound?
A: 115%

Q: What about the activity at 0.5 µM (WI‐26 VA4 cells [2]; [5]) of the same compound?
A: 55.6%

Q: And the activity at 0.5 µM (WI‐26 VA4 cells [2]; [6])?
A: 52.3%

Q: And the activity at 1 µM (WI‐26 VA4 cells [2]; [5])?
A: 29.5%

Q: What about the activity at 1 µM (WI‐26 VA4 cells [2]; [6]) of the same compound?
A: 26.2%

Q: And the activity at 3 µM (WI‐26 VA4 cells [2]; Homo sapiens, WI26VA4, 3000 nM, read-out: Puromycin, % of control, average)?
A: 0.29%

Q: What about the activity at 10 µM (WI‐26 VA4 cells [2]; Homo sapiens, WI26VA4, 10000 nM, read-out: Puromycin, % of control, average) of the same compound?
A: 0.42%

Q: And the activity at 30 µM (WI‐26 VA4 cells [2]; Homo sapiens, WI26VA4, 30000 nM, read-out: Puromycin, % of control, average)?
A: -0.13%

Q: And the activity at 100 µM (WI‐26 VA4 cells [2]; Homo sapiens, WI26VA4, 100000 nM, read-out: Puromycin, % of control, average)?
A: 0.29%

Q: What about the IC50 (WI‐26 VA4 cells [2]; Homo sapiens, WI26VA4, log(inhibitor) vs. response, variable slope (four parameters), read-out: Puromycin, IC50 (best-fit value)) of the same compound?
A: 581 nM

Q: What about the “Puromycin, HillSlope (best-fit value)” value (WI‐26 VA4 cells [2]; [7]) of the same compound?
A: -3.124

Q: What about the “Puromycin, LogIC50 (best-fit value)” value (WI‐26 VA4 cells [2]; [4]) of the same compound?
A: 2.764

Q: And the “Collagen, % of control (single replicates per experiment)” value (WI‐26 VA4 cells [3]; 1 nM, 0.001 µM)?
A: 99.09 % of control and 89.14 % of control and 102.78 % of control and 94.15 % of control and 107.84 % of control

Q: And the “Collagen, % of control (single replicates per experiment)” value (WI‐26 VA4 cells [3]; 3 nM, 0.003 µM)?
A: 120.43 % of control and 98.90 % of control and 84.42 % of control and 95.43 % of control and 97.10 % of control and 104.96 % of control

Q: And the “Collagen, % of control (single replicates per experiment)” value (WI‐26 VA4 cells [3]; 30 nM, 0.03 µM)?
A: 79.96 % of control and 82.37 % of control

Q: What about the “CC50/collagen IC50” value (WI‐26 VA4 cells [3]; Fig 5E) of the same compound?
A: 5.47

Q: And the IC50 (WI‐26 VA4 cells [3]; Homo sapiens, WI26VA4, read-out: Collagen IC50 (best-fit value), log(inhibitor) vs. response, variable slope (four parameters) (converted))?
A: 53.7 nM

Q: And the activity at 0.001 µM (WI‐26 VA4 cells [3]; Homo sapiens, WI26VA4, read-out: Collagen, % of control (single replicates per experiment), 1 nM)?
A: 109%

Q: And the activity at 0.1 µM (WI‐26 VA4 cells [3]; Homo sapiens, WI26VA4, read-out: Collagen, % of control (single replicates per experiment), 100 nM)?
A: 20.2%

Q: What about the activity at 0.3 µM (WI‐26 VA4 cells [3]; Homo sapiens, WI26VA4, read-out: Collagen, % of control (single replicates per experiment), 300 nM) of the same compound?
A: 3.63%

Q: And the activity at 0.001 µM (WI‐26 VA4 cells [3]; Homo sapiens, WI26VA4, read-out: Collagen, % of control, average, 1 nM, average)?
A: 100%

Q: What about the activity at 0.003 µM (WI‐26 VA4 cells [3]; Homo sapiens, WI26VA4, read-out: Collagen, % of control, average, 3 nM, average) of the same compound?
A: 100%

Q: What about the activity at 0.01 µM (WI‐26 VA4 cells [3]; Homo sapiens, WI26VA4, read-out: Collagen, % of control, average, 10 nM, average) of the same compound?
A: 101%

Q: What about the activity at 0.03 µM (WI‐26 VA4 cells [3]; Homo sapiens, WI26VA4, read-out: Collagen, % of control, average, 30 nM, average) of the same compound?
A: 80.4%

Q: And the activity at 0.1 µM (WI‐26 VA4 cells [3]; Homo sapiens, WI26VA4, read-out: Collagen, % of control, average, 100 nM, average)?
A: 20.6%

Q: And the activity at 0.3 µM (WI‐26 VA4 cells [3]; Homo sapiens, WI26VA4, read-out: Collagen, % of control, average, 300 nM, average)?
A: 3.18%

Q: What about the activity at 1 µM (WI‐26 VA4 cells [3]; Homo sapiens, WI26VA4, read-out: Collagen, % of control, average, 1000 nM, average) of the same compound?
A: 1.53%

Q: What about the activity at 3 µM (WI‐26 VA4 cells [3]; Homo sapiens, WI26VA4, read-out: Collagen, % of control, average, 3000 nM, average) of the same compound?
A: 1.46%

Q: And the “Collagen HillSlope (best-fit value)” value (WI‐26 VA4 cells [3]; [7])?
A: -2.337

Q: What about the “Collagen LogIC50 (best-fit value)” value (WI‐26 VA4 cells [3]; [4]) of the same compound?
A: 1.73

Q: And the “Relative (CC50)/(collagen IC50)” value (WI‐26 VA4 cells [3]; relative to HF, Fig 5E)?
A: 1.63
